Like-named read-outs stand apart in the source and are kept apart here.
Assays:
Type in all cases: cell-based
[1] = test system: Ba/F3 cells expressing EGFR mutations; test: Cell proliferation assay, Ba/F3 cells expressing EGFR mutations (CellTiter-Glo, 72 hours); details: CellTiter-Glo
Method in brief: (§1)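 In RPMI1640 medium (PC-9 with 10% FBS), each cell line was seeded at its own density: Ba/F3 5000 and PC-9 500 per well. A compound series was added the next day, with a time-zero viability plate read in parallel. Percent proliferation was subtracted for G0 and referenced to DMSO, and GI50 was derived by curve fitting.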

PC-9 = test: Cell proliferation assay, PC-9 cells (CellTiter-Glo, 72 hours); details: PC9 cells, CellTiter-Glo, read-out: PC9 GI50
Method in brief: as §1

A-431 = test: Cell proliferation GI50, A-431 cells (Table 6)
Method: [Worded in the source for another cell line; this cell line is reported under the same test.] Ba/F3 cells expressing EGFR mutations were seeded in 384-well plates at 5000 cells/well in RPMI1640 medium containing […]. PC-9 at 500 cells/well was seeded into 384-well plates in RPMI1640 medium with 10% FBS. After overnight incubation, the assay plates were dosed with compounds at a series of concentrations. Alongside dosing the assay plates, the day 0 plate was processed using CellTiter-Glo® Luminescent Cell Viability Assay (Promega) to measure the number of viable cells (G0). The assay plates were further incubated for 72 hours and the number of viable cells (G3) was measured. The percentage of proliferation was calculated as: […]=100×(G3 value of sample well−G0 value)/(G3 value of DMSO control−G0 value). The concentration of compound producing 50% proliferation inhibition (GI50) was further calculated in best-fit curves using XLFit software. N/A=not available.

[2] = BaF3 cells, EGFR DEL19-C797S, read-out: DEL19-C797S/BaF3 GI50
[3] = BaF3 cells, EGFR DEL19-T790-C797S, read-out: DEL19-T790-C797S/BaF3 GI50
[4] = BaF3 cells, EGFR L858R, read-out: L858R/BaF3 GI50
[5] = BaF3 cells, EGFR L858R-C797S, read-out: L858R-C797S/BaF3 GI50
[6] = BaF3 cells, EGFR L858R-T790-C797S, read-out: L858R-T790-C797S/BaF3 GI50
[7] = BaF3 cells, EGFR L858R-T790M, read-out: L858R-T790M/BaF3 GI50
[8] = EGFR DEL19-T790M, read-out: DEL19-T790M GI50
[9] = Homo sapiens, A-431, A-431 cells
[10] = Mus musculus, BaF3, 72 h, BaF3 cells, EGFR DEL19-C797S, read-out: DEL19-C797S/BaF3 GI50
[11] = Mus musculus, BaF3, 72 h, BaF3 cells, EGFR DEL19-T790-C797S, read-out: DEL19-T790-C797S/BaF3 GI50
[12] = Mus musculus, BaF3, 72 h, BaF3 cells, EGFR L858R, read-out: L858R/BaF3 GI50
[13] = Mus musculus, BaF3, 72 h, BaF3 cells, EGFR L858R-C797S, read-out: L858R-C797S/BaF3 GI50
[14] = Mus musculus, BaF3, 72 h, BaF3 cells, EGFR L858R-T790-C797S, read-out: L858R-T790-C797S/BaF3 GI50
[15] = Mus musculus, BaF3, 72 h, BaF3 cells, EGFR L858R-T790M, read-out: L858R-T790M/BaF3 GI50
[16] = Mus musculus, BaF3, 72 h, EGFR DEL19-T790M, read-out: DEL19-T790M GI50

Structure (SMILES)	GI50 [1, 2]	GI50 [1, 3]	GI50 [1, 4]	GI50 [1, 5]	GI50 [1, 6]	GI50 [1, 7]	GI50 [1, 8]	GI50 (PC-9)	GI50 (A-431; A-431 cells)	GI50 (A-431; [9])	GI50 [1, 10]	GI50 [1, 11]	GI50 [1, 12]	GI50 [1, 13]	GI50 [1, 14]	GI50 [1, 15]	GI50 [1, 16]	GI50 (PC-9; Homo sapiens, PC-9, 72 h)
CN1CC2CN(c3ccc4nc5n(c4c3)C34CCC(CN(CCOc6c(cnn6C)-c6cc(cn(C)c6=O)C(=O)N5)C3)C4)CC2C1 (single isomer, unassigned) [Example A68A]	196 nM	409 nM	480 nM	402 nM	366 nM	1120 nM	543 nM	460 nM	5320 nM	–	–	–	–	–	–	–	–	–
CN1CCN(C2CN(c3ccc4nc5n(c4c3)C34CCC(CN(CCOc6c(cnn6C)-c6cc(cn(C)c6=O)C(=O)N5)C3)C4)C2)CC1 (single isomer, unassigned) [Example A70A]	188 nM	411 nM	603 nM	452 nM	463 nM	1870 nM	517 nM	554 nM	3100 nM	–	–	–	–	–	–	–	–	–
Cn1ncc2c1OCCN1CC3CCC(C3)(C1)n1c(nc3ccc(N4CCN(C5COC5)CC4)cc31)NC(=O)c1cc-2c(=O)n(C)c1 (single isomer, unassigned) [Example A71A]	286 nM	579 nM	1760 nM	954 nM	762 nM	2410 nM	735 nM	787 nM	7860 nM	–	–	–	–	–	–	–	–	–
CN1CCN(C2CCN(c3ccc4nc5n(c4c3)C34CCC(CN(CCOc6c(cnn6C)-c6cc(cn(C)c6=O)C(=O)N5)C3)C4)C2)CC1 (single isomer, unassigned) [Example A80B, 15,21-Dimethyl-5-[3-(4-methylpiperazin-1-yl)pyrrolidin-1-yl]-23-oxa-2,9,11,15,20,21,26-heptaazaheptacyclo[24.4.1.1^{1,28}.1^{13,17}.0^{2,10}.0^{3,8}.0^{18,22}]tritriaconta-3,5,7,9,13,17(33),18(22),19-octaene-12,16-dione]	0.69 nM	1.3 nM	0.69 nM	0.8 nM	2.5 nM	2.7 nM	1.2 nM	3.3 nM	483 nM	–	–	–	–	–	–	–	–	–
Cn1ncc2c1OCCN1CC3CCC(C3)(C1)n1c(nc3ccc(N4CCC(N5CC(F)C5)C4)cc31)NC(=O)c1cc-2c(=O)n(C)c1 (single isomer, unassigned) [Example A94A1, 5-[3-(3-Fluoroazetidin-1-yl)pyrrolidin-1-yl]-15,21-dimethyl-23-oxa-2,9,11,15,20,21,26-heptaazaheptacyclo[24.4.1.1^{1,28}.1^{13,17}.0^{2,10}.0^{3,8}.0^{18,22}]tritriaconta-3,5,7,9,13,17(33),18(22),19-octaene-12,16-dione]	936 nM	2960 nM	754 nM	1800 nM	882 nM	2650 nM	2030 nM	2330 nM	3540 nM	–	–	–	–	–	–	–	–	–
Cn1ncc2c1OCCN1CC3CCC(C3)(C1)n1c(nc3ccc(N4CCC(N5CC(F)C5)C4)cc31)NC(=O)c1cc-2c(=O)n(C)c1 (single isomer, unassigned) [Example A94A2, 5-[3-(3-Fluoroazetidin-1-yl)pyrrolidin-1-yl]-15,21-dimethyl-23-oxa-2,9,11,15,20,21,26-heptaazaheptacyclo[24.4.1.1^{1,28}.1^{13,17}.0^{2,10}.0^{3,8}.0^{18,22}]tritriaconta-3,5,7,9,13,17(33),18(22),19-octaene-12,16-dione]	1090 nM	3940 nM	715 nM	1480 nM	634 nM	2710 nM	2100 nM	1940 nM	1800 nM	–	–	–	–	–	–	–	–	–
CN(C)C1CN(c2ccc3nc4n(c3c2)C23CCC(CN(CCOc5c(cnn5C)-c5cc(cn(C)c5=O)C(=O)N4)C2)C3)CC1(F)F (single isomer, unassigned) [Example A99A]	966 nM	2900 nM	372 nM	1560 nM	874 nM	2630 nM	1250 nM	3090 nM	–	4930 nM	–	–	–	–	–	–	–	–

More lines, now with the values ahead:

GI50 [1, 2]	GI50 [1, 3]	GI50 [1, 4]	GI50 [1, 5]	GI50 [1, 6]	GI50 [1, 7]	GI50 [1, 8]	GI50 (PC-9)	GI50 (A-431; A-431 cells)	GI50 (A-431; [9])	GI50 [1, 10]	GI50 [1, 11]	GI50 [1, 12]	GI50 [1, 13]	GI50 [1, 14]	GI50 [1, 15]	GI50 [1, 16]	GI50 (PC-9; Homo sapiens, PC-9, 72 h)	Structure (SMILES)
–	–	–	–	–	–	–	–	–	2540 nM	77 nM	811 nM	56 nM	63 nM	76 nM	585 nM	788 nM	183 nM	CN(C)CCN(C)c1ccc2nc3n(c2c1)CCN(CC(F)F)CCOc1c(cnn1C)-c1cc(cn(C)c1=O)C(=O)N3 [Example A4, 10-(2,2-Difluoroethyl)-16-{[2-(dimethylamino)ethyl](methyl)amino}-5,26-dimethyl-7-oxa-4,5,10,13,20,22,26-heptaazapentacyclo[22.3.1.0^{2,6}.0^{13,21}.0^{14,19}]octacosa-1(28),2(6),3,14,16,18,20,24-octaene-23,27-dione]
–	–	–	–	–	–	–	–	–	1410 nM	279 nM	830 nM	1050 nM	1160 nM	976 nM	803 nM	768 nM	424 nM	CCN1CCOc2c(cnn2C)-c2cc(cn(C)c2=O)C(=O)Nc2nc3ccccc3n2C(C)(C)C1 [Example A7, 10-Ethyl-5,12,12,26-tetramethyl-7-oxa-4,5,10,13,20,22,26-heptaazapentacyclo[22.3.1.0^{2,6}.0^{13,21}.0^{14,19}]octacosa-1(28),2(6),3,14,16,18,20,24-octaene-23,27-dione]
–	–	–	–	–	–	–	–	–	2610 nM	666 nM	1750 nM	2690 nM	2250 nM	2150 nM	1720 nM	1790 nM	903 nM	Cn1ncc2c1OCCN1CCC(C)(C1)n1c(nc3ccc(N4CCOCC4)cc31)NC(=O)c1cc-2c(=O)n(C)c1 (centres unmarked) [Example A11, 5,13,27-trimethyl-17-(morpholin-4-yl)-7-oxa-4,5,10,14,21,23,27-heptaazahexacyclo[23.3.1.1^{10,13}.0^{2,6}.0^{14,22}.0^{15,20}]triaconta-1(29),2(6),3,15,17,19,21,25-octaene-24,28-dione]
–	–	–	–	–	–	–	–	–	719 nM	2.3 nM	3.6 nM	13 nM	11 nM	13 nM	24 nM	15 nM	17 nM	C[C@@H]1CCCOc2c(cnn2C)-c2cc(cn(C)c2=O)C(=O)Nc2nc3ccc(N4CC5CN(C)CC5C4)cc3n2C1 (some centres unmarked) [Example A30]
–	–	–	–	–	–	–	–	–	790 nM	2.3 nM	3.4 nM	25 nM	10 nM	13 nM	30 nM	–	35 nM	C[C@@H]1CCCOc2c(cnn2C)-c2cc(cn(C)c2=O)C(=O)Nc2nc3ccc(N4CC5CC4CN5C)cc3n2C1 (some centres unmarked) [Example A31]
–	–	–	–	–	–	–	–	–	248 nM	0.43 nM	1.5 nM	3 nM	2.8 nM	2.9 nM	9.1 nM	3.8 nM	7.3 nM	C[C@@H]1CCCOc2c(cnn2C)-c2cc(cn(C)c2=O)C(=O)Nc2nc3ccc(N4CC5CCN(C)C5C4)cc3n2C1 (some centres unmarked) [Example A32]
–	–	–	–	–	–	–	–	–	587 nM	1.1 nM	1.3 nM	4.6 nM	4.2 nM	8.9 nM	9.8 nM	5 nM	9.1 nM	C[C@@H]1CCCOc2c(cnn2C)-c2cc(cn(C)c2=O)C(=O)Nc2nc3ccc(N4CCC5(CCN(C)C5)C4)cc3n2C1 (some centres unmarked) [Example A34]
